Species: Rattus norvegicus
Format: toxicity, organism-based, Sprague-Dawley
Conditions: in vivo, 24 h, time 1 day; for ALANINE AMINOTRANSFERASE / ALBUMIN / ALKALINE PHOSPHATASE / ASPARTATE AMINOTRANSFERASE / BLOOD UREA NITROGEN / CARBON DIOXIDE / CHLORIDE / CHOLESTEROL / CREATINE PHOSPHOKINASE / CREATININE / GLUCOSE / LACTATE DEHYDROGENASE / LIPASE / PHOSPHORUS / POTASSIUM / SODIUM / TOTAL BILIRUBIN / TOTAL PROTEIN / URIC ACID: tissue Plasma
[1] = po, 0 mg/kg, vehicle control, tissue Blood, route oral GAVAGE, dose level Control, vehicle 100 % WATER
[2] = po, 0 mg/kg, vehicle control, route oral GAVAGE, dose level Control, vehicle 100 % WATER
[3] = po, 2000 mg/kg, tissue Blood, route oral GAVAGE, dose level High, vehicle 100 % WATER
[4] = po, 2000 mg/kg, route oral GAVAGE, dose level High, vehicle 100 % WATER
[5] = ip, 0 mg/kg, vehicle control, tissue Blood, route intraperitoneal, dose level Control, vehicle .1 % RSA/SALINE
[6] = ip, 0 mg/kg, vehicle control, route intraperitoneal, dose level Control, vehicle .1 % RSA/SALINE

Description: DrugMatrix - Regimen: Single

## CCOC(=O)N1CCC(=C2c3ccc(Cl)cc3CCc3cccnc32)CC1 [LORATADINE]
[1]
  ABSOLUTE BASOPHIL: 63.3 cells/µL
  ABSOLUTE EOSINOPHIL: 66.7 cells/µL
  ABSOLUTE LYMPHOCYTE: 8010 cells/µL
  ABSOLUTE MONOCYTE: 240 cells/µL
  BASOPHIL: 0.6%
  EOSINOPHIL: 0.6%
  ERYTHROCYTE COUNT: 6.25 x10E6/uL
  HEMATOCRIT: 40.47%
  HEMOGLOBIN: 12.83 G/DL
  LEUKOCYTE COUNT: 10.19 x10E3/uL
  LYMPHOCYTE: 78.7%
  MEAN CORPUSCULAR HEMOGLOBIN: 20.53 pg
  MEAN CORPUSCULAR VOLUME: 64.67 fL
  MONOCYTE: 2.5%
  NEUTROPHIL: 17.07%
  PLATELET COUNT: 1297 x10E3/uL
[2]
  ALANINE AMINOTRANSFERASE: 32.67 u/L
  ALBUMIN: 3.9 G/DL
  ALKALINE PHOSPHATASE: 374 u/L
  ASPARTATE AMINOTRANSFERASE: 64.33 u/L
  BLOOD UREA NITROGEN: 14 mg/dL
  CARBON DIOXIDE: 45.67 mmol/L
  CHLORIDE: 103 MEQ/L
  CHOLESTEROL: 82.67 mg/dL
  CREATINE PHOSPHOKINASE: 216.33 u/L
  CREATININE: 0.17 mg/dL
  GLUCOSE: 161.33 mg/dL
  LACTATE DEHYDROGENASE: 103.67 u/L
  LIPASE: 8.67 u/L
  PHOSPHORUS: 11 mg/dL
  POTASSIUM: 6.83 MEQ/L
  SODIUM: 144.67 MEQ/L
  TOTAL BILIRUBIN: 0.27 mg/dL
  TOTAL PROTEIN: 6.27 G/DL
  URIC ACID: 0.67 mg/dL
[3]
  ABSOLUTE BASOPHIL: 63.3 cells/µL
  ABSOLUTE EOSINOPHIL: 56.7 cells/µL
  ABSOLUTE LYMPHOCYTE: 5990 cells/µL
  ABSOLUTE MONOCYTE: 100 cells/µL
  BASOPHIL: 0.97%
  EOSINOPHIL: 0.77%
  ERYTHROCYTE COUNT: 7.26 x10E6/uL
  HEMATOCRIT: 47.47%
  HEMOGLOBIN: 14.97 G/DL
  LEUKOCYTE COUNT: 6.8 x10E3/uL
  LYMPHOCYTE: 87.87%
  MEAN CORPUSCULAR HEMOGLOBIN: 20.6 pg
  MEAN CORPUSCULAR VOLUME: 65.27 fL
  MONOCYTE: 1.5%
  NEUTROPHIL: 8.47%
  PLATELET COUNT: 1455 x10E3/uL
[4]
  ALANINE AMINOTRANSFERASE: 19.67 u/L
  ALBUMIN: 4.17 G/DL
  ALKALINE PHOSPHATASE: 348 u/L
  ASPARTATE AMINOTRANSFERASE: 59.33 u/L
  BLOOD UREA NITROGEN: 11.33 mg/dL
  CARBON DIOXIDE: 39.67 mmol/L
  CHLORIDE: 104 MEQ/L
  CHOLESTEROL: 66.33 mg/dL
  CREATINE PHOSPHOKINASE: 336 u/L
  CREATININE: 0.3 mg/dL
  GLUCOSE: 156 mg/dL
  LACTATE DEHYDROGENASE: 112.67 u/L
  LIPASE: 8.33 u/L
  PHOSPHORUS: 12.4 mg/dL
  POTASSIUM: 7.03 MEQ/L
  SODIUM: 145.67 MEQ/L
  TOTAL BILIRUBIN: 0.3 mg/dL
  TOTAL PROTEIN: 6.8 G/DL
  URIC ACID: 0.8 mg/dL

## INTERLEUKIN 6, RAT
[5]
  ABSOLUTE EOSINOPHIL: 109.33 CELLS/uL
  ABSOLUTE LYMPHOCYTE: 13180.67 CELLS/uL
  ABSOLUTE MONOCYTE: 354 CELLS/uL
  ABSOLUTE SEGMENTED NEUTROPHIL: 1756 CELLS/uL
  BASOPHIL: 0%
  EOSINOPHIL: 0.67%
  ERYTHROCYTE COUNT: 5.38 x10E6/uL
  HEMOGLOBIN: 12.57 G/DL
  LEUKOCYTE COUNT: 15.4 x10E3/uL
  LYMPHOCYTE: 85%
  MEAN CORPUSCULAR HEMOGLOBIN: 23.37 pg
  MEAN CORPUSCULAR HEMOGLOBIN CONCENTRATION: 38.3 G/DL
  NEUTROPHIL: 12%
  NUCLEATED RED BLOOD CELLS: 0 /100WBC
  PLATELET COUNT: 832.33 x10E3/uL
[6]
  ALANINE AMINOTRANSFERASE: 37.33 u/L
  ALBUMIN: 4 G/DL
  ALKALINE PHOSPHATASE: 344.67 u/L
  ASPARTATE AMINOTRANSFERASE: 69.33 u/L
  BLOOD UREA NITROGEN: 13.67 mg/dL
  CARBON DIOXIDE: 28.33 mmol/L
  CHLORIDE: 99.67 MEQ/L
  CHOLESTEROL: 73.67 mg/dL
  CREATINE PHOSPHOKINASE: 270 u/L
  CREATININE: 0.19 mg/dL
  GLUCOSE: 176.33 mg/dL
  LACTATE DEHYDROGENASE: 160 u/L
  PHOSPHORUS: 13.47 mg/dL
  POTASSIUM: 6.77 MEQ/L
  TOTAL BILIRUBIN: 0.13 mg/dL
  TOTAL PROTEIN: 6.07 G/DL
  URIC ACID: 1.87 mg/dL

From ChEMBL document CHEMBL3885881, “DrugMatrix”
